Results reported in patent US8445461B2, “Pharmaceutical composition for meniere's disease” (Setsuko Takeda, priority 2007, dated 2013).

Test system: experimental endolymphatic hydrops
Test: Endolymphatic hydrops decompression effect: IR-L, IR-S and regression lines in the operated ear
Format: in vivo, guinea pigs
Conditions: for Regression line IR-S vs IR-L: Y-intercept / Regression line IR-S vs IR-L: slope: operated ears; for Regression line IR-S vs IR-L: Y-intercept / Regression line IR-S vs IR-L: slope / IR-L (%) increase ratio of the length of Reissner's membrane / IR-S (%) increase ratio of the cross-sectional area of the scala media: active agent 2.8 g/kg oral; for IR-L (%) increase ratio of the length of Reissner's membrane / IR-S (%) increase ratio of the cross-sectional area of the scala media: operated side
Protocol: The endolymphatic hydrops-decompression effect of saccharides or sugar alcohols was evaluated by assaying as below in triplicate. Firstly, guinea pigs received the surgical obliteration of the endolymphatic sac in the left ear to prepare “experimental model animals with endolymphatic hydrops”. The surgical obliteration of the endolymphatic sac was carried out by burning the extraskeletal portion in the endolymphatic sac with a bipolar electrocoagulator. An endolymphatic sac plays an important role in the absorption of endolymphatic fluid. The inhibition of absorption of endolymphatic fluid was caused by burning the endolymphatic sac to prepare an experimental endolymphatic hydrops. Those hydrops are progressively formed. The size of hydrops becomes constant 2 weeks to month after the surgery and maintained for several months. In detail, see Non-patent Reference 8 for the surgery.
After 1 month, they were divided into 3 groups: Group 2-1 (groups 1-6), 60 animals; Group 2-2 (groups 7-10), 40 animals; and Group 2-3 (groups 11-20), […]. The animals in Group 2-1 received saccharides or sugar alcohols alone (Reference Example 5). The animals in Group 2-2 orally received saccharides or sugar alcohols added polysaccharides. The animals in Group 2-3 received other combinations of saccharides or sugar alcohols added polysaccharides. Animals were sacrificed after the oral administration and the observation and the assessment the gastrointestinal condition, and observed the morphological change of the cochlea mainly in the operated side (left side), in particular of the endolymphatic hydrops decompression effect.
I were obtained left sides of the temporal bones immediately following fixation and kept them in 10% formalin solution for 10 days or more. They were decalcified with 5% trichloroacetic acid and dehydrated with alcohol in increasing concentration, then embedded in paraffin and celloidin. The prepared blocks were cut serially in the horizontal plane. The mid-modiolar sections were stained in hematoxylin and eosin and studied under a light microscope. For the quantitative assessment of changes of the endolymphatic space, the change ratios of the length of Reissner's membrane and the cross-sectional area of the scala media in each turn were measured from the mid-modiolar sections of the cochlea.
From these parameters, the increase ratios (%) of the length of Reissner's membrane (IR-L) and the cross-sectional area (%) of the scala media (IR-S) of a total of four turns were calculated according to the equation as described below:
The increase ratio of the length of Reissner's membrane (IR-L)=100×Σ(Lx−L*x)/ΣL*x (x: first, second, third and fourth turns)
The increase ratio of the cross-section area of the scala media (IR-S)=100×Σ(Sx−S*x)/ΣS*x (x: first, second, third and fourth turns)
Since almost no difference is shown in the regression lines of each group, it cannot be understood that there is the decompression effect of erythritol alone. When endolymphatic hydrops is formed, the cross-sectional area of scala media and the length of Reissner's membrane will increase. It can be assumed from FIG. 1 that there is statistically a primary correlation between both of them in the operated side in the control group. The regression lines are; IR-S (distilled water)=4.011+1.212*IR-L (distilled water); R2=0.987, IR-S (1 hour after)=5.409+1.1*IR-L (1 hour after); R2=0.903, IR-S (2 hours after)=1.125+0.992*IR-L (2 hours after); R2=0.98, IR-S (3 hours after)=2.407+1.309*IR-L (3 hours after); R2=0.974, IR-S (6 hours after)=7.36+1.147*IR-L (6 hours after); R2=0.895, IR-S (12 hours after)=8.089+1.152*IR-L (12 hours after); R2=0.918.
The difference of decompression effect on endolymphatic hydrops depending on dose of pectin added and time-course of the decompression effect can hardly determined by comparing and analyzing the average and standard deviation of IR-L and IR-S in the operated side in each groups. […]

[1] = alone or with additive, 3 hours after
[2] = alone or with additive, 6 hours after
[3] = alone or with additive, 12 hours after
[4] = alone or with additive, perfusion 3 hours after
[5] = alone or with additive, perfusion 6 hours after
[6] = alone or with additive, perfusion 12 hours after

OC[C@@H](O)[C@@H](O)CO [Erythritol, erythritol]
Difference of regression lines from control (ANCOVA test) (erythritol 2.8 g/kg alone, E1H to E12H groups (1 to 12 hours after)): no significant difference | Regression line IR-S vs IR-L: Y-intercept [1]: 2.407 | Regression line IR-S vs IR-L: slope [1]: 1.309 | Regression line IR-S vs IR-L: Y-intercept [2]: 7.36 | Regression line IR-S vs IR-L: slope [2]: 1.147 | Regression line IR-S vs IR-L: Y-intercept [3]: 8.089 | Regression line IR-S vs IR-L: slope [3]: 1.152 | Regression line IR-S vs IR-L: Y-intercept (1 hour after): 5.409 | Regression line IR-S vs IR-L: slope (1 hour after): 1.1 | Regression line IR-S vs IR-L: Y-intercept (2 hours after): 1.125 | Regression line IR-S vs IR-L: slope (2 hours after): 0.992 | IR-L (%) increase ratio of the length of Reissner's membrane [4]: 23.2 ± 16.9% | IR-S (%) increase ratio of the cross-sectional area of the scala media [4]: 32.7 ± 22.4% | IR-L (%) increase ratio of the length of Reissner's membrane [5]: 37.8 ± 24.8% | IR-S (%) increase ratio of the cross-sectional area of the scala media [5]: 51.4 ± 38.1% | IR-L (%) increase ratio of the length of Reissner's membrane [6]: 37.5 ± 18.7% | IR-S (%) increase ratio of the cross-sectional area of the scala media [6]: 51.4 ± 22.5% | IR-L (%) increase ratio of the length of Reissner's membrane (perfusion 1 hour after): 24.2 ± 20.2% | IR-S (%) increase ratio of the cross-sectional area of the scala media (perfusion 1 hour after): 32.1 ± 23.3% | IR-L (%) increase ratio of the length of Reissner's membrane (perfusion 2 hours after): 29.4 ± 25.5% | IR-S (%) increase ratio of the cross-sectional area of the scala media (perfusion 2 hours after): 30.2 ± 26.3%
